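The compound was tested at five concentrations on cells cultured in 96-well plates, with a 48-hour exposure period. GI50 is the concentration that inhibits growth by half. TGI denotes the concentration required for complete inhibition of growth.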
Key:
Test in all cases: DTP human tumour cell line panel, 48 h
MALME-3M melanoma = system: MALME-3M melanoma
RXF 393 renal = system: RXF 393 renal
SF-539 CNS = system: SF-539 CNS
786-0 renal = system: 786-0 renal
OVCAR-3 ovarian = system: OVCAR-3 ovarian
RPMI-8226 leukemia = system: RPMI-8226 leukemia
UACC-257 melanoma = system: UACC-257 melanoma
SW-620 colon = system: SW-620 colon
A498 renal = system: A498 renal

## O=C(O)Cc1cc(=O)[nH]c2c1/C(=N/O)CCC2
MALME-3M melanoma
  TGI: > 100 µM
RXF 393 renal
  TGI: > 100 µM
SF-539 CNS
  TGI: > 100 µM
786-0 renal
  TGI: > 100 µM
OVCAR-3 ovarian
  TGI: > 100 µM
RPMI-8226 leukemia
  TGI: > 100 µM
UACC-257 melanoma
  TGI: > 100 µM
SW-620 colon
  TGI: > 100 µM

## O=C(Nc1ccc(Cl)cc1Cl)C1C(=O)C(=O)N(c2ccc(Cl)cc2Cl)C1=O (centres undefined)
MALME-3M melanoma
  TGI: > 100 µM
RXF 393 renal
  TGI: > 100 µM
A498 renal
  TGI: > 100 µM
SF-539 CNS
  TGI: > 100 µM
786-0 renal
  TGI: > 100 µM
OVCAR-3 ovarian
  TGI: > 100 µM
UACC-257 melanoma
  TGI: > 100 µM
SW-620 colon
  TGI: > 100 µM

## CC(=O)CC(N)=O
MALME-3M melanoma
  TGI: > 100 µM
RXF 393 renal
  TGI: > 100 µM
A498 renal
  TGI: > 100 µM
SF-539 CNS
  TGI: > 100 µM
786-0 renal
  TGI: > 100 µM
OVCAR-3 ovarian
  TGI: > 100 µM
RPMI-8226 leukemia
  TGI: > 100 µM
UACC-257 melanoma
  TGI: > 100 µM
SW-620 colon
  TGI: > 100 µM

## COc1ccc(NC(=O)CC/C(CC(=O)C(C)(C)C)=N\NC(=O)C(=O)NN)cc1
MALME-3M melanoma
  TGI: > 100 µM
RXF 393 renal
  TGI: > 100 µM
A498 renal
  TGI: > 100 µM
SF-539 CNS
  TGI: > 100 µM
786-0 renal
  TGI: > 100 µM
OVCAR-3 ovarian
  TGI: > 100 µM
RPMI-8226 leukemia
  TGI: > 100 µM
UACC-257 melanoma
  TGI: > 100 µM
SW-620 colon
  TGI: > 100 µM

## C=C(C#N)C1OCC2OC(C)(C)OC21 (centres undefined)
RXF 393 renal
  TGI: 31.3 µM
A498 renal
  TGI: 51.2 µM
SF-539 CNS
  TGI: 30 µM
786-0 renal
  TGI: 39.4 µM
OVCAR-3 ovarian
  TGI: 46 µM
UACC-257 melanoma
  TGI: 30 µM
SW-620 colon
  TGI: 39.6 µM

## CCOC(=O)/C(=C\c1ccc(N(CCC#N)CCC#N)cc1)NC(=O)c1cc([N+](=O)[O-])ccc1Cl
MALME-3M melanoma
  TGI: > 100 µM
RXF 393 renal
  TGI: > 100 µM
A498 renal
  TGI: > 100 µM
SF-539 CNS
  TGI: > 100 µM
786-0 renal
  TGI: > 100 µM
OVCAR-3 ovarian
  TGI: > 100 µM
RPMI-8226 leukemia
  TGI: > 100 µM
UACC-257 melanoma
  TGI: > 100 µM
SW-620 colon
  TGI: > 100 µM

## COc1ccc(/C(=N\NC(=O)C(=O)NN)C(c2ccc(OC)cc2)C2(O)C(=O)Nc3ccccc32)cc1 (centres undefined)
MALME-3M melanoma
  TGI: > 100 µM
A498 renal
  TGI: > 100 µM
SF-539 CNS
  TGI: > 100 µM
786-0 renal
  TGI: > 100 µM
OVCAR-3 ovarian
  TGI: > 100 µM
RPMI-8226 leukemia
  TGI: > 100 µM
SW-620 colon
  TGI: > 100 µM

## COC(=O)C1=C(O)c2cc(-c3ccccc3)c(-c3ccccc3)c(C#N)c2NC(=O)C1
RXF 393 renal
  TGI: 9.33 µM
A498 renal
  TGI: > 100 µM
SF-539 CNS
  TGI: > 100 µM
786-0 renal
  TGI: > 100 µM
OVCAR-3 ovarian
  TGI: > 100 µM
UACC-257 melanoma
  TGI: > 100 µM

## Cc1cccc(C)c1CO
MALME-3M melanoma
  TGI: > 100 µM
RXF 393 renal
  TGI: > 100 µM
SF-539 CNS
  TGI: > 100 µM
786-0 renal
  TGI: > 100 µM
OVCAR-3 ovarian
  TGI: > 100 µM
RPMI-8226 leukemia
  TGI: > 100 µM
UACC-257 melanoma
  TGI: > 100 µM
SW-620 colon
  TGI: > 100 µM

## O=C(O)NC(c1ccccc1)C(NC(=O)c1ccccc1)c1ccccc1 (centres undefined)
MALME-3M melanoma
  TGI: > 100 µM
RXF 393 renal
  TGI: > 100 µM
A498 renal
  TGI: > 100 µM
SF-539 CNS
  TGI: > 100 µM
786-0 renal
  TGI: > 100 µM
OVCAR-3 ovarian
  TGI: > 100 µM
RPMI-8226 leukemia
  TGI: > 100 µM
UACC-257 melanoma
  TGI: > 100 µM
SW-620 colon
  TGI: > 100 µM

## C#CCOCn1cnc2c(Sc3c([N+](=O)[O-])ncn3C)ncnc21
MALME-3M melanoma
  TGI: > 100 µM
RXF 393 renal
  TGI: > 100 µM
A498 renal
  TGI: > 100 µM
786-0 renal
  TGI: > 100 µM
OVCAR-3 ovarian
  TGI: > 100 µM
RPMI-8226 leukemia
  TGI: > 100 µM
UACC-257 melanoma
  TGI: > 100 µM
SW-620 colon
  TGI: > 100 µM

## CC(=O)[CH-]C(=O)c1ccccc1.CC(=O)[CH-]C(=O)c1ccccc1.CC(C)CCCC(C)[C@H]1CCC2[C@@H]3CC=C4C[C@@H]([O-])CC[C@]4(C)C3CC[C@@]21C.CC(C)CCCC(C)[C@H]1CCC2[C@@H]3CC=C4C[C@@H]([O-])CC[C@]4(C)C3CC[C@@]21C.[Ti+4] (some centres undefined)
RXF 393 renal
  GI50: > 100 µM
  TGI: > 100 µM
A498 renal
  GI50: > 100 µM
  TGI: > 100 µM
SF-539 CNS
  GI50: > 100 µM
  TGI: > 100 µM
786-0 renal
  GI50: > 100 µM
  TGI: > 100 µM
OVCAR-3 ovarian
  GI50: > 100 µM
  TGI: > 100 µM
RPMI-8226 leukemia
  GI50: > 100 µM
  TGI: > 100 µM
UACC-257 melanoma
  GI50: > 100 µM
  TGI: > 100 µM
SW-620 colon
  GI50: > 100 µM
  TGI: > 100 µM

## CC(C)(C)CC(C)(C)c1cc2c(O)c(c1)Cc1cc(C(C)(C)CC(C)(C)C)cc(c1O)Cc1cc(C(C)(C)CC(C)(C)C)cc(c1O)Cc1cc(C(C)(C)CC(C)(C)C)cc(c1O)Cc1cc(C(C)(C)CC(C)(C)C)cc(c1O)C2
MALME-3M melanoma
  TGI: > 100 µM
RXF 393 renal
  TGI: > 100 µM
SF-539 CNS
  TGI: > 100 µM
786-0 renal
  TGI: > 100 µM
OVCAR-3 ovarian
  TGI: > 100 µM
RPMI-8226 leukemia
  TGI: > 100 µM
UACC-257 melanoma
  TGI: > 100 µM
SW-620 colon
  TGI: > 100 µM

## CN1CC(=O)N(C)c2ncn(Cc3ccccc3)c2C1=O
MALME-3M melanoma
  TGI: > 100 µM
RXF 393 renal
  TGI: > 100 µM
A498 renal
  TGI: > 100 µM
SF-539 CNS
  TGI: > 100 µM
786-0 renal
  TGI: > 100 µM
OVCAR-3 ovarian
  TGI: > 100 µM
RPMI-8226 leukemia
  TGI: > 100 µM
SW-620 colon
  TGI: > 100 µM

## CC(=O)OC1CCn2nnc(CO)c21 (centres undefined)
MALME-3M melanoma
  TGI: > 100 µM
RXF 393 renal
  TGI: > 100 µM
SF-539 CNS
  TGI: > 100 µM
786-0 renal
  TGI: > 100 µM
OVCAR-3 ovarian
  TGI: > 100 µM
RPMI-8226 leukemia
  TGI: > 100 µM
UACC-257 melanoma
  TGI: > 100 µM
SW-620 colon
  TGI: > 100 µM

## COc1cc(OC)c(SSCCCCS(=O)O)c(OC)c1
MALME-3M melanoma
  TGI: 31 µM
RXF 393 renal
  TGI: 27.6 µM
A498 renal
  TGI: 33.6 µM
SF-539 CNS
  TGI: 29.5 µM
786-0 renal
  TGI: 35.4 µM
OVCAR-3 ovarian
  TGI: 28.6 µM
UACC-257 melanoma
  TGI: 23.5 µM
SW-620 colon
  TGI: 28.4 µM

## Cn1nc(-c2ccccc2)c(C(=O)/C=C/c2ccc(Cl)cc2)c(N2CCCCC2)c1=O
RXF 393 renal
  TGI: 2.8 µM
SF-539 CNS
  TGI: 2.98 µM
786-0 renal
  TGI: 3.67 µM
RPMI-8226 leukemia
  TGI: 5.52 µM
SW-620 colon
  TGI: 16.6 µM

## COc1ccc2c3c([nH]c2c1[N+](=O)[O-])C(C)N(Cc1ccc([N+](=O)[O-])cc1)CC3 (centres undefined)
RXF 393 renal
  TGI: 57.1 µM
A498 renal
  TGI: 63.7 µM
SF-539 CNS
  TGI: > 100 µM
786-0 renal
  TGI: > 100 µM
OVCAR-3 ovarian
  TGI: 64.7 µM
RPMI-8226 leukemia
  TGI: 26.2 µM
UACC-257 melanoma
  TGI: 61.5 µM
SW-620 colon
  TGI: > 100 µM
